Assay results published in PubChem BioAssay (NCI).
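GI50 is the concentration that inhibits growth by half. TGI denotes the concentration required for complete inhibition of growth.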

Columns and labels:
Assay in all cases: NCI-60 cell line screen, 384-well format
[1] = tested on: RXF 393 renal
[2] = tested on: K-562 leukemia
[3] = tested on: NCI-H226 lung
[4] = tested on: RPMI-8226 leukemia
[5] = tested on: KM12 colon
[6] = tested on: NCI-H522 lung
[7] = tested on: LOX IMVI melanoma
[8] = tested on: HL-60(TB) leukemia
[9] = tested on: MOLT-4 leukemia
[10] = tested on: SNB-19 CNS
[11] = tested on: U251 glioblastoma
[12] = tested on: HOP-92 NSCLC
[13] = tested on: MDA-MB-435 melanoma
[14] = tested on: MDA-MB-231 breast
[15] = tested on: OVCAR-8 ovarian
[16] = tested on: CAKI-1 renal
[17] = tested on: UACC-62 melanoma
[18] = tested on: SF-539 CNS
[19] = tested on: NCI/ADR-RES ovarian
[20] = tested on: OVCAR-3 ovarian
[21] = tested on: M14 melanoma
[22] = tested on: SF-295 CNS
[23] = tested on: HS 578T breast
[24] = tested on: SN12C renal
[25] = tested on: SK-MEL-28 melanoma
[26] = tested on: SK-OV-3 ovarian
[27] = tested on: HT29 colon
[28] = tested on: UACC-257 melanoma
[29] = tested on: BT-549 breast
[30] = tested on: PC-3 prostate
[31] = tested on: HOP-62 NSCLC
[32] = tested on: 786-0 renal
[33] = tested on: SW-620 colon
[34] = tested on: HCT-15 colon
[35] = tested on: ACHN renal
[36] = tested on: A498 renal
[37] = tested on: T-47D breast
[38] = tested on: CCRF-CEM leukemia
[39] = tested on: UO-31 renal
[40] = tested on: MALME-3M melanoma
[41] = tested on: NCI-H23 lung
[42] = tested on: SNB-75 CNS
[43] = tested on: A549 NSCLC
[44] = tested on: SF-268 CNS
[45] = tested on: SK-MEL-2 melanoma
[46] = tested on: IGROV1 ovarian
[47] = tested on: OVCAR-4 ovarian
[48] = tested on: DU-145 prostate
[49] = tested on: MDA-MB-468 breast
[50] = tested on: MCF7 breast
[51] = tested on: TK-10 renal
[52] = tested on: HCT-116 colon

## O=NN(CCCl)C(=O)NC1CCCCC1
[1]
  GI50: 17.3 µM
  TGI: 36 µM
[2]
  GI50: 20.1 µM
  TGI: 42.5 µM
[3]
  GI50: 29.9 µM
[4]
  GI50: 13.7 µM
  TGI: 26.9 µM
[5]
  GI50: 22.2 µM
  TGI: 86.8 µM
[6]
  GI50: 15.4 µM
  TGI: 29 µM
[7]
  GI50: 13.2 µM
  TGI: 38 µM
[8]
  GI50: 12.2 µM
  TGI: 24.8 µM
[9]
  GI50: 12.4 µM
  TGI: 25 µM
[10]
  GI50: 34.9 µM
[11]
  GI50: 18.9 µM
[12]
  GI50: 28.9 µM
[13]
  GI50: 26 µM
  TGI: 81.2 µM
[14]
  GI50: 76.1 µM
[15]
  GI50: 21.4 µM
  TGI: 49.6 µM
[16]
  GI50: 22.9 µM
  TGI: 75.4 µM
[17]
  GI50: 12.5 µM
  TGI: 41.6 µM
[18]
  GI50: 16.4 µM
  TGI: 35.3 µM
[19]
  GI50: 22.7 µM
  TGI: 54.4 µM
[20]
  GI50: 27.4 µM
  TGI: 98 µM
[21]
  GI50: 21.9 µM
  TGI: 65.2 µM
[22]
  GI50: 27.2 µM
[23]
  GI50: 13.1 µM
  TGI: 42.5 µM
[24]
  GI50: 21.3 µM
  TGI: 61.2 µM
[25]
  GI50: 42.5 µM
[26]
  GI50: 55.1 µM
[27]
  GI50: 27.1 µM
  TGI: 78 µM
[28]
  GI50: 52.1 µM
[29]
  GI50: 21.4 µM
  TGI: 59.6 µM
[30]
  GI50: 29 µM
[31]
  GI50: 18.9 µM
  TGI: 56.5 µM
[32]
  GI50: 20.2 µM
  TGI: 66.4 µM
[33]
  GI50: 20.9 µM
  TGI: 69.1 µM
[34]
  GI50: 19.1 µM
  TGI: 41.3 µM
[35]
  GI50: 24.9 µM
  TGI: 71.4 µM
[36]
  GI50: 73.1 µM
[37]
  GI50: 34.6 µM
[38]
  GI50: 19.5 µM
  TGI: 33.8 µM
[39]
  GI50: 24.3 µM
  TGI: 63.1 µM
[40]
  GI50: 18.6 µM
  TGI: 43.5 µM
[41]
  GI50: 30.3 µM
[42]
  GI50: 34.6 µM
[43]
  GI50: 51.8 µM
[44]
  GI50: 29.3 µM
[45]
  GI50: 32.5 µM
  TGI: 78.9 µM
[46]
  GI50: 78 µM
[47]
  GI50: 20.6 µM
  TGI: 50.3 µM
[48]
  GI50: 51.9 µM
[49]
  GI50: 13.2 µM
  TGI: 28.4 µM
[50]
  GI50: 41.1 µM
[51]
  GI50: 32.8 µM
[52]
  GI50: 32.3 µM
